One may read the LD50 as the dose expected to kill half of the subjects tested.

These results are taken from patent US4108991A, “N-aminosulfenyl derivatives of aldicarb” (priority 1976, dated 1978).

Where two headings read alike, the source gives them in different places.

One data set concerns insects and mites. The data set is described as follows: Systemic activity (soil-watering), insects and mites in general. The class given is in vivo. Conditions: in words. How it is done:
(§1) Systemic Activity: Systemic activity was measured using a soil-watering technique. Test organisms were Mexican bean beetle, southern armyworm, pea aphid, and mites on plants as described above in this Example. With appropriate precautions to avoid contact of the solution with the test plant surfaces, 25 ml of a test solution, prepared as above to contain the desired amount of active ingredient, were poured evenly over the surface of the soil in which the plant was growing. The treated plants were maintained under normal growing conditions for three days to permit translocation of the toxicant, after which the leaves were infested. Two days after infestation, counts of living and dead insects were made.

The test system of another data set is Granary Weevil. The data set is described as follows: Initial contact activity, granary weevil. Conditions: for mortality at 20 ppm / mortality at 39 ppm / mortality at 156 ppm / mortality at 1250 ppm / mortality at 312 ppm: Sitophilus granarius, 48 h. The data set is classed as in vivo.
In another data set the test system is Pea aphid. Kind of data set: Systemic activity, soil-watering, pea aphid. The data set is classed as in vivo, Acyrthosiphon pisum [Harris]. How it is done: (§2) Initial Contact Activity: One half gram of test compound was dissolved in 40 ml of acetone and this solution was dispersed in 360 ml of water containing one drop of isooctylphenyl polyethoxyethanol. Aliquots of this solution, which corresponds to 1250 ppm of active ingredient, were diluted with an appropriate amount of water to provide solutions containing various concentrations of active ingredient. Test organisms and techniques were as follows: The activity against the Mexican bean beetle (Epilachna varivestis Muls.) and the southern armyworm (Spodoptera eridania [Cram.]) was evaluated by dipping the leaves of pinto bean plants into the test solution and infesting the leaves with the appropriate immature-form insects when the foiliage had dried; the activity against the pea aphid (Acyrthosiphon pisum [Harris]) was evaluated on broad bean plants whose leaves were dipped before infestation with adult aphids; the activity against two-sotted spider mites (Tetranychus urticae Koch) was evaluated on pinto bean plants whose leaves were dipped after infestation with adult mites; the activity against the milkweed bug (Oncopeltus fasciatus [Dallas]), and the plum curculio (Conotrachelus nenuphar [Herbst]) was evaluated by spraying the test solutions into glass dishes or jars containing the adult insects; the activity against the confused flour beetle (Tribolium confusum duVal) was evaluated by introducing the insects into glass dishes which had been previously sprayed with test solution and allowed to dry. All organisms in the test were maintained in a holding room at 80° F and 50% relative humidity for an exposure period of 48 hours. At the end of this time, the dead and living insects or mites were counted, and the percent kill was calculated.
as §1

The test system of a further data set is Southern armyworm. The data set is described as follows: Systemic activity, soil-watering, southern armyworm. The class given is in vivo, Spodoptera eridania [Cram.]. Conditions: Spodoptera eridania, 48 h, read-out: Percent Kill. How it is done:
as §2, §1

A short description of data set [1]: Toxicity to rats, acute oral median lethal dose (LD50), Method A. Conditions: in vivo, rat, corn oil, 14 days observation. The data set is classed as in vivo, young female albino rats, derived from Sprague-Dawley stock. How it is done:
(§3) Method A: Young female albino rats, derived from Sprague-Dawley stock and weighing between 175 and 200 g, were used. An initial screening was conducted to determine the general level of toxicity of the test compounds and to establish the dosing range to be used with each compound. The test materials were suspended in corn oil and administered directly into the stomachs of the rats, using a hypodermic syringe equipped with a ball-tipped intubating needle. A range of dosing levels was employed utilizing two rats at each level. […] This method was used to determine the toxicity to rats of the compounds of Examples I, II, and III and aldicarb.

For the next data set, the system named is rats. The description is as above. Conditions: rat; for Enhancement LD50 Derivative/LD50 Aldicarb: ratio to aldicarb. The data set is classed as in vivo, young female albino rats, derived from Sprague-Dawley stock. How it is done:
as §3

A further data set relates to Plum curculio. Kind of data set: Initial contact activity, spray, plum curculio. The data set is classed as in vivo, Conotrachelus nenuphar [Herbst]. Conditions: Conotrachelus nenuphar, read-out: Percent Kill. How it is done:
as §2

Another data set concerns Confused flour beetle. The data set is described as follows: Initial contact activity, sprayed dishes, confused flour beetle. The data set is classed as in vivo, Tribolium confusum duVal. Conditions: Tribolium confusum, read-out: Percent Kill. How it is done: as §2
The mark [2] stands for this setting: initial, GW, 156 PPM, 48 hours, read-out: Percent Kill.
The mark [3] stands for this setting: initial, GW, 1250 PPM, 48 hours, read-out: Percent Kill.
The mark [4] stands for this setting: Acyrthosiphon pisum, 48 h, systemic, PA, 10 PPM, read-out: Percent Kill.
The mark [5] stands for this setting: initial, PC, 1250 PPM, 48 hours.
[6] abbreviates: initial, GW, 312 PPM, 48 hours, read-out: Percent Kill.
The mark [7] stands for this setting: initial, FB, 1250 PPM, 48 hours.
Setting [8] is: Acyrthosiphon pisum, 48 h, systemic, PA, 39 PPM, read-out: Percent Kill.

For `CSC(C)(C)C=NOC(=O)N(C)SN(C)C` [Example IV, 2-Methyl-2-(methylthio)propanal O-[(dimethylaminosulfenyl)-(methyl)carbamoyl]oxime], the “systemic activity compared with aldicarb” value in the data set with insects and mites was “substantially the same as aldicarb”. The mortality at 20 ppm in the data set on Granary Weevil (initial, GW, 20 PPM, 48 hours, read-out: Percent Kill) is 0%. Further, the mortality at 39 ppm in the data set on Granary Weevil (initial, GW, 39 PPM, 48 hours, read-out: Percent Kill) came out at 5%; in the data set with Southern armyworm (systemic, AW, 39 PPM), 0%. For the same compound, the mortality at 156 ppm in the data set on Granary Weevil (setting [2]) was 50%. For the same compound, the mortality at 1250 ppm with Granary Weevil (setting [3]) came out at 100%. In the data set with Pea aphid (Acyrthosiphon pisum, 48 h, systemic, PA, 5 PPM, read-out: Percent Kill), the mortality at 5 ppm stood at 100%. Moreover, in the data set with Pea aphid (setting [4]), the mortality at 10 ppm was 100%. The mortality at 312 ppm with Pea aphid (Acyrthosiphon pisum, 48 h, systemic, PA, 312 PPM, read-out: Percent Kill) was found to be 100%; in the data set on Southern armyworm (systemic, AW, 312 PPM) it was 100%.
In data set [1], `CSC(C)(C)C=NOC(=O)N(C)SN(C)Cc1ccccc1` [Example I, 2-methyl-2-(methylthio)propanol O-[(N-benzyl-N-methylaminosulfenyl)(methyl)carbamoyl]oxime] came in with an LD50 at 336 h of 9.4 mg/kg. In addition, the “LD50 relative to that of aldicarb” value in the data set with rats turned out to be 19 times. The “Enhancement LD50 Derivative/LD50 Aldicarb” value in the data set on rats is 19. Further, the mortality at 10 ppm in the data set on Plum curculio (initial, PC, 10 PPM, 48 hours) was found to be 10%; in the data set on Pea aphid (setting [4]), 0%. Further, the mortality at 39 ppm came to 0% with Plum curculio (initial, PC, 39 PPM, 48 hours) and 100% with Pea aphid (setting [8]). In addition, the mortality at 156 ppm in the data set on Plum curculio (initial, PC, 156 PPM, 48 hours) stood at 0%; in the data set on Granary Weevil (setting [2]) it was 100%; in the data set on Confused flour beetle (initial, FB, 156 PPM, 48 hours), 5%. Moreover, the values for the mortality at 1250 ppm with Plum curculio (setting [5]), with Granary Weevil (setting [3]) and in the data set with Confused flour beetle (setting [7]) were 45%, 100% and 2.5%, respectively. Also, the mortality at 312 ppm in the data set on Granary Weevil (setting [6]) is 100%; with Confused flour beetle (initial, FB, 312 PPM, 48 hours), 5%; in the data set with Southern armyworm (systemic, AW, 312 PPM) it was 50%. Further, the mortality at 625 ppm in the data set on Southern armyworm (systemic, AW, 625 PPM) was 84%.
`CNC(=O)ON=CC(C)(C)SC` [Aldicarb, 2-methyl-2-(methylthio)propanal O-(methylcarbamoyl)oxime] showed a 50% lethal dose (LD50) at 336 h in data set [1] of 0.5 mg/kg. The mortality at 10 ppm in the data set on Plum curculio (48 h) was determined as 10%; with Pea aphid (Acyrthosiphon pisum, 48 h, read-out: Percent Kill, systemic, PA, 10 PPM) it was 90%. The mortality at 39 ppm in the data set on Plum curculio (48 h) was 35%; in the data set with Granary Weevil (read-out: Percent Kill, initial, GW, 39 PPM, 48 hours) it was 40%; with Pea aphid (Acyrthosiphon pisum, 48 h, read-out: Percent Kill, systemic, PA, 39 PPM) it was 100%; in the data set on Southern armyworm, 50%. Moreover, the mortality at 156 ppm in the data set with Plum curculio (48 h) amounted to 100%; with Granary Weevil (read-out: Percent Kill, initial, GW, 156 PPM, 48 hours), 100%; in the data set with Confused flour beetle (48 h), 5%. In addition, the mortality at 1250 ppm in the data set on Plum curculio (48 h) is 100%; in the data set on Granary Weevil (read-out: Percent Kill, initial, GW, 1250 PPM, 48 hours) it was 100%; with Confused flour beetle (48 h), 90%. The mortality at 20 ppm with Granary Weevil (read-out: Percent Kill, initial, GW, 20 PPM, 48 hours) was 20%. Moreover, the mortality at 312 ppm with Granary Weevil (read-out: Percent Kill, initial, GW, 312 PPM, 48 hours) stood at 100%; in the data set with Confused flour beetle (48 h) it was 10%; with Southern armyworm, 100%. Moreover, the “Percent Kill” value with Granary Weevil (initial, GW, 156 PPM, 48 hours, 2880 min) worked out at 97.5%; in the data set with Pea aphid (systemic, PA, 10 PPM, 2880 min), 100%. For the same compound, in the data set on Pea aphid (Acyrthosiphon pisum, 48 h, read-out: Percent Kill, systemic, PA, 5 PPM), the mortality at 5 ppm came to 100%. The mortality at 321 ppm with Pea aphid (Acyrthosiphon pisum, 48 h, read-out: Percent Kill, systemic, PA, 321 PPM) was 100%. Further, the mortality at 625 ppm in the data set with Southern armyworm stood at 100%.
With `CCCCN(CCCC)SN(C)C(=O)ON=CC(C)(C)SC` [Example III, 2-methyl-2-(methylthio)propanal O-[(dibutylaminosulfenyl)(methyl)carbamoyl]oxime], the LD50 at 336 h in data set [1] was found to be 12.5 mg/kg. The “LD50 relative to that of aldicarb” value in the data set on rats is recorded as 25 times. Also, in the data set with rats, the “Enhancement LD50 Derivative/LD50 Aldicarb” value came out at 25. For the same compound, the mortality at 10 ppm in the data set on Plum curculio (initial, PC, 10 PPM, 48 hours) came to 0%; in the data set with Pea aphid (setting [4]), 0%. Also, the mortality at 39 ppm was determined as 5% in the data set with Plum curculio (initial, PC, 39 PPM, 48 hours) and 64% in the data set on Pea aphid (setting [8]). Further, the mortality at 156 ppm was found to be 0% in the data set on Plum curculio (initial, PC, 156 PPM, 48 hours); 100% in the data set with Granary Weevil (setting [2]); 0% in the data set on Confused flour beetle (initial, FB, 156 PPM, 48 hours). The mortality at 1250 ppm in the data set on Plum curculio (setting [5]) stood at 55%; in the data set with Granary Weevil (setting [3]), 100%; with Confused flour beetle (setting [7]) it was 70%. Besides, the mortality at 312 ppm in the data set on Granary Weevil (setting [6]) came to 100%; in the data set on Confused flour beetle (initial, FB, 312 PPM, 48 hours), 7.5%; with Southern armyworm (systemic, AW, 312 PPM) it was 0%. For the same compound, the mortality at 625 ppm in the data set on Southern armyworm (systemic, AW, 625 PPM) is 68%.
Compound `CSC(C)(C)C=NOC(=O)N(C)SN1CCOCC1` [Example II, 2-methyl-2-(methylthio)propanol O-[(N-methyl-N-morpholinosulfenyl)carbamoyl]oxime] registered an LD50 at 336 h in data set [1] of 1.2 mg/kg. Also, the “LD50 relative to that of aldicarb” value with rats turned out to be 2.4 times. For the same compound, the “Enhancement LD50 Derivative/LD50 Aldicarb” value with rats was 2.4. Besides, the mortality at 10 ppm amounted to 0% with Plum curculio (initial, PC, 10 PPM, 48 hours) and 40% in the data set with Pea aphid (setting [4]). In addition, the mortality at 39 ppm with Plum curculio (initial, PC, 39 PPM, 48 hours) came out at 5%; in the data set on Pea aphid (setting [8]), 100%. Besides, the mortality at 156 ppm in the data set on Plum curculio (initial, PC, 156 PPM, 48 hours) was determined as 47%; in the data set with Granary Weevil (setting [2]) it was 100%; in the data set on Confused flour beetle (initial, FB, 156 PPM, 48 hours), 5%. The mortality at 1250 ppm was found to be 100% with Plum curculio (setting [5]), 100% in the data set on Granary Weevil (setting [3]) and 80% with Confused flour beetle (setting [7]). Further, the mortality at 312 ppm with Granary Weevil (setting [6]) was determined as 100%; in the data set on Confused flour beetle (initial, FB, 312 PPM, 48 hours) it was 51%; in the data set with Southern armyworm (systemic, AW, 312 PPM), 100%. Also, the mortality at 625 ppm in the data set on Southern armyworm (systemic, AW, 625 PPM) worked out at 100%.
